Reference: patent US6020521A, “Macrolide LHRH antagonists” (Abbott Laboratories, priority 1998, dated 2000)

Molecular target: T1, LHRH rat pituitary receptor (Rattus norvegicus, UniProt P30969)
T1 construct: from tissue; host or cells: rat pituitary
T1 sequence (P30969 1-327): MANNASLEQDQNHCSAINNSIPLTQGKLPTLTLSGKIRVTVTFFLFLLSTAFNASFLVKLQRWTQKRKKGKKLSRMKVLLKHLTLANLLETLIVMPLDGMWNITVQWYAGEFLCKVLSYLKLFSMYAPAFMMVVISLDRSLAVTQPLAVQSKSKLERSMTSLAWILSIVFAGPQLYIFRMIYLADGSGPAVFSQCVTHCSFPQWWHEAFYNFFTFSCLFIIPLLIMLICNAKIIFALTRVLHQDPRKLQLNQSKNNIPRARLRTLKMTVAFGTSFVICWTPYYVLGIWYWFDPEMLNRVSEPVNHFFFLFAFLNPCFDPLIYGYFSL
Test: LHRH rat pituitary receptor binding (pKI)
Conditions: receptor binding affinity, negative logarithm of the equilibrium dissociation constants
Description: Representative compounds of the present invention were evaluated in in vitro tests for LHRH rat pituitary receptor binding (pKI) and for LH inhibition from rat pituitary cells for antagonist potency (pA2). The tests employed the methods detailed in F. Haviv, et al. J. Med. Chem., 32: 2340-2344 (1989). The receptor binding affinity (pKI) is the negative logarithm of the equilibrium dissociation constants.

| SMILES | Ki [nM] | p KI |
| --- | --- | --- |
| CCCN(C)[C@H]1C[C@@H](C)O[C@@H](O[C@@H]2[C@@H](C)[C@H](OC(=O)N3C(=O)OC[C@@H]3C)[C@@H](C)C(=O)O[C@H](CC)[C@@]3(C)OC(=O)N(CCc4ccc(Cl)c(Cl)c4)[C@@H]3[C@@H](C)C(=O)[C@H](C)C[C@@]2(C)OC)[C@@H]1O [Example 16, 11-Deoxy-11-[carboxy(3,4-dichlorophenethyl)amino]-3-O-[4-(S)-methyl-oxazolidin-2-one]carbamoyl-5-O-(3'-N-desmethyl-3'-N-n-propyl)desosaminyl-6-O-methyl-erythronolide A 11,12-(cyclic carbamate)] | 3.98 |  |
| CC[C@H]1OC(=O)[C@H](C)[C@@H](OC(=O)C2CCOC2)[C@H](C)[C@@H](O[C@@H]2O[C@H](C)C[C@H](N(C)C(C)C)[C@H]2O)[C@](C)(OC)C[C@@H](C)C(=O)[C@H](C)[C@H]2N(CCc3ccc(Cl)cc3)C(=O)O[C@]12C (stereo partly drawn) [Example 9, 11-Deoxy-11-[carboxy(4-chlorophenethyl)amino]-5-O-(3'-N-desmethyl-3'-N-isopropyl)desosaminyl-3-O-(tetrahydro-3-furoyl)-6-O-methyl-erythronolide A 11 12-(cyclic carbamate)] |  | 7.85 |
| CC[C@H]1OC(=O)[C@H](C)[C@@H](OC(=O)N2C(=O)OC[C@@H]2C)[C@H](C)[C@@H](O[C@@H]2O[C@H](C)C[C@H](N(C)C3CCCCC3)[C@H]2O)[C@](C)(OC)C[C@@H](C)C(=O)[C@H](C)[C@H]2N(CCc3ccc(Cl)c(Cl)c3)C(=O)O[C@]12C [Example 15, 11-Deoxy-11-[carboxy(3,4-dichlorophenethyl)amino]-3-O-[4-(S)-methyl-oxazolidin-2-one]carbamoyl-5-O-(3'-N-desmethyl-3'-N-cyclohexyl)desosaminyl-6-O-methyl-erythronolide A 11,12-(cyclic carbamate)] | 3.89 |  |
| CCCN(C(C)C)[C@H]1C[C@@H](C)O[C@@H](O[C@@H]2[C@@H](C)[C@H](OC(=O)N3C(=O)OC[C@@H]3C)[C@@H](C)C(=O)O[C@H](CC)[C@@]3(C)OC(=O)N(CCc4ccc(Cl)c(Cl)c4)[C@@H]3[C@@H](C)C(=O)[C@H](C)C[C@@]2(C)OC)[C@@H]1O [Example 21, 11-Deoxy-11-[carboxy(3,4-dichlorophenethyl)amino]-3-O-[4-(S)-methyl-oxazolidin-2-one]carbamoyl-5-O-(3'-bis-N-desmethyl-3'-N-n-propyl-3'-N-isopropyl)desosaminyl-6-O-methyl-erythronolide A 11,12-(cyclic carbamate)] | 0.245 |  |
| CC[C@H]1OC(=O)[C@H](C)[C@@H](OC(=O)N2C(=O)OC[C@@H]2C)[C@H](C)[C@@H](O[C@@H]2O[C@H](C)C[C@H](N(C)CC3CCC3)[C@H]2O)[C@](C)(OC)C[C@@H](C)C(=O)[C@H](C)[C@H]2N(CCc3ccc(Cl)c(Cl)c3)C(=O)O[C@]12C [Example 18, 11-Deoxy-11-[carboxy(3,4-dichlorophenethyl)amino]-3-O-[4-(S)-methyl-oxazolidin-2-one]carbamoyl-5-O-(3'-N-desmethyl-3'-N-cyclobutylmethyl)desosaminyl-6-O-methyl-erythronolide A 11,12-(cyclic carbamate)] | 0.933 |  |
| CC[C@H]1OC(=O)[C@H](C)[C@@H](OC(=O)N2COC[C@H]2C)[C@H](C)[C@@H](O[C@@H]2O[C@H](C)C[C@H](N(C)C(C)C)[C@H]2O)[C@](C)(OC)C[C@@H](C)C(=O)[C@H](C)[C@H]2N(CCc3ccc(Cl)cc3)C(=O)O[C@]12C [Example 8, 11-Deoxy-11-[carboxy(4-chlorophenethyl)amino]-5-O-(3'-N-desmethyl-3'-N-isopropyl)desosaminyl-3-O-[4-(R)-methyl-oxazolidine]carbamoyl-6-O-methyl-erythronolide A 11,12-(cyclic carbamate)] | 11.7 |  |
| CC[C@H]1OC(=O)[C@H](C)[C@@H](OC(=O)N2C(=O)OC[C@@H]2C)[C@H](C)[C@@H](O[C@@H]2O[C@H](C)C[C@H](N(C)C3CCC3)[C@H]2O)[C@](C)(OC)C[C@@H](C)C(=O)[C@H](C)[C@H]2N(CCc3ccc(Cl)c(Cl)c3)C(=O)O[C@]12C [Example 13, 11-Deoxy-11-[carboxy(3,4-dichlorophenethyl)amino]-3-O-[4-(S)-methyl-oxazolidin-2-one]carbamoyl-5-O-(3'-N-desmethyl-3'-N-cyclobutyl)desosaminyl-6-O-methyl-erythronolide A 11,12-(cyclic carbamate)] | 3.09 |  |
| CCC1OC(=O)C(C)C(OC(=O)C2CCOC2)C(C)C(OC2OC(C)CC(NC(C)C)C2O)C(C)(OC)CC(C)C(=O)C(C)C2N(CCc3ccc(Cl)cc3)C(=O)OC12C (stereo not drawn) [Example 10, 11-Deoxy-11-[carboxy(4-chlorophenethyl)amino]-5-O-(3'-bis-N-desmethyl-3'-N-isopropyl)desosaminyl-3-O-(tetrahydro-3-furoyl)-6-O-methyl-erythronolide A 11,12-(cyclic carbamate)] |  | 8.09 |

Continued, values first:

| Ki [nM] | p KI | SMILES |
| --- | --- | --- |
| 6.76 |  | CC[C@H]1COC(=O)N1C(=O)O[C@H]1[C@H](C)[C@@H](O[C@@H]2O[C@H](C)C[C@H](N(C)CC3CC3)[C@H]2O)[C@](C)(OC)C[C@@H](C)C(=O)[C@H](C)[C@H]2N(CCc3ccc(Cl)c(Cl)c3)C(=O)O[C@]2(C)[C@@H](CC)OC(=O)[C@@H]1C [Example 38, 11-Deoxy-11-[carboxy(3,4-dichlorophenethyl)amino]-3-O-[4-(S)-ethyl-oxazolidin-2-one]carbamoyl-5-O-(3'-N-desmethyl-3'-N-cyclopropylmethyl)desosaminyl-6-O-methyl-erythronolide A 11,12-(cyclic carbamate)] |
| 0.692 |  | CC[C@H]1OC(=O)[C@H](C)[C@@H](OC(=O)N2C(=O)OC[C@@H]2C)[C@H](C)[C@@H](O[C@@H]2O[C@H](C)C[C@H](N(CC3CC3)CC3CC3)[C@H]2O)[C@](C)(OC)C[C@@H](C)C(=O)[C@H](C)[C@H]2N(CCc3ccc(F)c(Cl)c3)C(=O)O[C@]12C [Example 43, 11-Deoxy-11-[carboxy(3-chloro-4-fluorophenethyl)amino]-3-O-[4-(S)-methyl-oxazolidin-2-one]carbamoyl-5-O-(3'-bis-N-desmethyl-3'-bis-N-cyclopropylmethyl)desosaminyl-6-O-methyl-erythronolide A 11,12-(cyclic carbamate)] |
| 0.251 |  | CC[C@H]1OC(=O)[C@H](C)[C@@H](OC(=O)N2C(=O)OC[C@@H]2C)[C@H](C)[C@@H](O[C@@H]2O[C@H](C)C[C@H](N(C)C3CCC3)[C@H]2O)[C@](C)(OC)C[C@@H](C)C(=O)[C@H](C)[C@H]2N(CCc3ccc(Cl)cc3)C(=O)O[C@]12C [Example 24, 11-Deoxy-11-[carboxy(4-chlorophenethyl)amino]-3-O-[4-(S)-methyl-oxazolidin-2-one]carbamoyl-5-O-(3'-N-desmethyl-3'-N-cyclobutyl)desosaminyl-6-O-methyl-erythronolide A 11,12-(cyclic carbamate)] |
| 2.82 |  | CC[C@H]1OC(=O)[C@H](C)[C@@H](OC(=O)N2C[C@@H](C)OC2=O)[C@H](C)[C@@H](O[C@@H]2O[C@H](C)C[C@H](N(C)CC3CC3)[C@H]2O)[C@](C)(OC)C[C@@H](C)C(=O)[C@H](C)[C@H]2N(CCc3ccc(Cl)c(Cl)c3)C(=O)O[C@]12C [Example 39, 11-Deoxy-11-[carboxy(3,4-dichlorophenethyl)amino]-3-O-[5-(R)-methyl-oxazolidin-2-one]carbamoyl-5-O-(3'-N-desmethyl-3'-N-cyclopropylmethyl)desosaminyl-6-O-methyl-erythronolide A 11,12-(cyclic carbamate)] |
| 0.955 |  | CCCN(C)[C@H]1C[C@@H](C)O[C@@H](O[C@@H]2[C@@H](C)[C@H](OC(=O)N3C(=O)OC[C@@H]3C)[C@@H](C)C(=O)O[C@H](CC)[C@@]3(C)OC(=O)N(CCc4ccc(F)cc4)[C@@H]3[C@@H](C)C(=O)[C@H](C)C[C@@]2(C)OC)[C@@H]1O [Example 31, 11-Deoxy-11-[carboxy(4-fluorophenethyl)amino]-3-O-[4-(S)-methyl-oxazolidin-2-one]carbamoyl-5-O-(3'-N-desmethyl-3'-N-n-propyl)desosaminyl-6-O-methyl-erythronolide A 11,12-(cyclic carbamate)] |
| 0.0832 |  | CC[C@H]1OC(=O)[C@H](C)[C@@H](OC(=O)N2C(=O)OC[C@@H]2C)[C@H](C)[C@@H](O[C@@H]2O[C@H](C)C[C@H](N(C)C3CCC3)[C@H]2O)[C@](C)(OC)C[C@@H](C)C(=O)[C@H](C)[C@H]2N(CCc3ccc(F)c(Cl)c3)C(=O)O[C@]12C [Example 34, 11-Deoxy-11-[carboxy(3-chloro-fluorophenethyl)amino]-3-O-[4-(S)-methyl-oxazolidin-2-one]carbamoyl-5-O-(3'-N-desmethyl-3'-N-cyclobutyl)desosaminyl-6-O-methyl-erythronolide A 11,12-(cyclic carbamate)] |
| 0.851 |  | CC[C@H]1OC(=O)[C@H](C)[C@@H](OC(=O)N2C(=O)OC[C@@H]2C)[C@H](C)[C@@H](O[C@@H]2O[C@H](C)C[C@H](N(C)C3CCCC3)[C@H]2O)[C@](C)(OC)C[C@@H](C)C(=O)[C@H](C)[C@H]2N(CCc3ccc(F)c(Cl)c3)C(=O)O[C@]12C [Example 35, 11-Deoxy-11-[carboxy(3-chloro-4-fluorophenethyl)amino]-3-O-[4-(S)-methyl-oxazolidin-2-one]carbamoyl-5-O-(3'-N-desmethyl-3'-N-cyclopentyl)desosaminyl-6-O-methyl-erythronolide A 11,12-(cyclic carbamate)] |
